Data taken from patent US20260124214A1, “HETEROCYCLIC COMPOUNDS FOR USE IN THE TREATMENT OF CANCER” (ARTIOS PHARMA LIMITED, priority 2021, published 2026).
Counter-ions that a name gives are not always drawn.

Target: T1, Human Polθ polymerase domain (aa1820-2590) (Homo sapiens, UniProt O75417)
T1 construct: Human Polθ polymerase domain (aa1820-2590) was expressed in E. Coli; made in house; host or cells: E. coli
T1 sequence (O75417 1820-2590): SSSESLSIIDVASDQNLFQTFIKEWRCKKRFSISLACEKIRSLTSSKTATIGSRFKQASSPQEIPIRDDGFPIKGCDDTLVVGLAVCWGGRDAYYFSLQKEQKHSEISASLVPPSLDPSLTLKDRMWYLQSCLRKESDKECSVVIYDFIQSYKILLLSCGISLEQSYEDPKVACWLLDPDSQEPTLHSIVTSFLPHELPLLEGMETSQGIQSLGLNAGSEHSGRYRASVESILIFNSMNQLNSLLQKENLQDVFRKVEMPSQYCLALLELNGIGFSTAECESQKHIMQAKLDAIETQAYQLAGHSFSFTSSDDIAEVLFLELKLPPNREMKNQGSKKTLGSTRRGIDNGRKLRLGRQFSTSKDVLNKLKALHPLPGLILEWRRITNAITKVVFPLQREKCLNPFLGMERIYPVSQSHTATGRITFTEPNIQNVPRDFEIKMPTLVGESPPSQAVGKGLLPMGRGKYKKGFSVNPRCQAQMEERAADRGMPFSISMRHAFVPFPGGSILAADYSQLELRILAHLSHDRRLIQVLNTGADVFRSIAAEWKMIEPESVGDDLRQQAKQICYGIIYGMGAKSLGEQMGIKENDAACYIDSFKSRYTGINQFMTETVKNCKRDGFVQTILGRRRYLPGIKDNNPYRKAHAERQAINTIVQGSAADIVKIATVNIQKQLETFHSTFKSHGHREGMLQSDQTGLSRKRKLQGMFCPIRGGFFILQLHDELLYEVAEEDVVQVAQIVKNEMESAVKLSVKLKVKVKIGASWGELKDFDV
Assay: Polθ Polymerase Domain WT KI Assay (PicoGreen)
Type: biochemical
Conditions: 100 nM DNA substrate, 0.156 nM Polθ, initial rates vs inhibitor concentration
Procedure: A PicoGreen assay was used to measure the KI values of reversible compounds that inhibit the activity of Polθ in vitro.
Human Polθ polymerase domain (aa1820-2590) was expressed in E. Coli, purified, aliquoted and stored at −80° C. until required. Polθ substrate was generated from a 1.2:1 mix of DNA II Short to DNA II Long to give a final concentration of […] substrate in annealing buffer (20 mM Tris pH 7.5, 50 mM NaCl). The substrate was heated in 50 mL aliquots to 95° C. in a heating block for 5 min before the heating block switched off, the reaction left to cool to rt and stored at −20° C. until required.
Assay measurements were performed with 1× buffer comprising 25 mM Tris pH 7.5, 12.5 mM NaCl, […], 5% (v/v) glycerol, 0.01% v/v Triton x-100, 0.1 mg/ml BSA, 1 mM DTT. […] 100 nL of 23×1:1.5-fold serial dilutions and a DMSO only control were dispensed using the Tecan dispenser into Greiner 384 well black low volume plates (product code 784076). DMSO concentration was maintained at 1% of the final assay volume by back filling with DMSO.
To stop the reaction, 5 μL of a solution containing 25 mM Tris-HCl PH 7.5 and 20 mM EDTA was added at […] (t=0, 15, 30, 60, 90, 120, 150, 180 mins) using the Tempest's time delay function. The plates were covered during the time course to prevent evaporation. After completing the assay, 5 μL of detection reagent (25 mM Tris-HCl pH 7.5 and 2.5% (v/v) PicoGreen) was dispensed into the wells using a Tempest liquid handler (Formulatrix) and plates subsequently read on the CLARIOstar Plus (BMG Labtech) using the default optical settings for fluorescein and the auto gain/focus settings.
All data analysis was carried out using GraphPad Prism V.8 (GraphPad Software Inc, San Diego, CA). Time course data for each inhibitor concentration were fitted to the linear regression model in GraphPad Prism. Any time points where the control (DMSO only) reaction was no longer linear were excluded from the analysis. The initial rates (slopes) obtained from the linear regression were then plotted against inhibitor concentration and fitted to an inhibitor vs. response variable slope (four parameter) model on GraphPad Prism to determine the KI values.

Ki [nM]	SMILES
56.8	Cc1cc(C(F)(F)F)cc(N2C(=O)C[C@@H]3CN(c4ccccc4)c4c(F)cccc4N(C)C(=O)[C@H]32)n1 [Example 139, (3aR,11aS)-6-Fluoro-10-methyl-1-(6-methyl-4-(trifluoromethyl)pyridin-2-yl)-5-phenyl-1,3a,4,5,10,11a-hexahydro-2H-benzo[b]pyrrolo[2,3-f][1,4]diazocine-2,11(3H)-dione]
0.258	Cc1cc(C(F)(F)F)cc(N2C(=O)C[C@@H]3CN(Cc4cn5c(n4)CN(C)CC5)c4c(C)cccc4N(C)C(=O)[C@H]32)n1 [Example 121, (3aR,11aS)-6,10-Dimethyl-1-(6-methyl-4-(trifluoromethyl)pyridin-2-yl)-5-((7-methyl-5,6,7,8-tetrahydroimidazo[1,2-a]pyrazin-2-yl)methyl)-1,3a,4,5,10,11a-hexahydro-2H-benzo[b]pyrrolo[2,3-f][1,4]diazocine-2,11(3H)-dione]
0.936	Cc1cc(C(F)(F)F)cc(N2C(=O)C[C@@H]3CN(CCN4CC[C@H](N(C)C)[C@H](F)C4)c4c(C)cccc4N(C)C(=O)[C@H]32)n1 [Example 66, (3aR,11aS)-5-(2-((3R,4S)-4-(Dimethylamino)-3-fluoropiperidin-1-yl)ethyl)-6,10-dimethyl-1-(6-methyl-4-(trifluoromethyl)pyridin-2-yl)-1,3a,4,5,10,11a-hexahydro-2H-benzo[b]pyrrolo[2,3-f][1,4]diazocine-2,11(3H)-dione dihydrochloride]
1.22	Cc1cc(C(F)(F)F)cc(N2C(=O)C[C@@H]3CN(CCN4CCN(C)[C@H](CO)C4)c4c(C)cccc4N(C)C(=O)[C@H]32)n1 [Example 15, (3aR,11aS)-5-(2-((S)-3-(Hydroxymethyl)-4-methylpiperazin-1-yl)ethyl)-6,10-dimethyl-1-(6-methyl-4-(trifluoromethyl)pyridin-2-yl)-1,3a,4,5,10,11a-hexahydro-2H-benzo[b]pyrrolo[2,3-f][1,4]diazocine-2,11(3H)-dione]
2.95	Cc1cc(C(F)(F)F)cc(N2C(=O)C[C@@H]3CN(C[C@H]4CCNC4)c4c(C)cccc4N(C)C(=O)[C@H]32)n1 [Example 104, (3aR,11aS)-6,10-Dimethyl-1-(6-methyl-4-(trifluoromethyl)pyridin-2-yl)-5-(((S)-pyrrolidin-3-yl)methyl)-1,3a,4,5,10,11a-hexahydro-2H-benzo[b]pyrrolo[2,3-f][1,4]diazocine-2,11(3H)-dione hydrochloride]
1.3	Cc1cc(C(F)(F)F)cc(N2C(=O)C[C@@H]3CN(CC4CCN(CCO)CC4)c4c(C)cccc4N(C)C(=O)[C@H]32)n1 [Example 88, (3aR,11aS)-5-((1-(2-Hydroxyethyl)piperidin-4-yl)methyl)-6,10-dimethyl-1-(6-methyl-4-(trifluoromethyl)pyridin-2-yl)-1,3a,4,5,10,11a-hexahydro-2H-benzo[b]pyrrolo[2,3-f][1,4]diazocine-2,11(3H)-dione]
79.6	COc1ccnc(N2C[C@H]3CC(=O)N(c4cc(C(F)(F)F)cc(C)n4)[C@@H]3C(=O)N(C)c3cccc(F)c32)c1 [Example 140, (3aR,11aS)-6-Fluoro-5-(4-methoxypyridin-2-yl)-10-methyl-1-(6-methyl-4-(trifluoromethyl)pyridin-2-yl)-1,3a,4,5,10,11a-hexahydro-2H-benzo[b]pyrrolo[2,3-f][1,4]diazocine-2,11(3H)-dione]
1.01	Cc1cc(C(F)(F)F)cc(N2C(=O)C[C@@H]3CN(CCN4C[C@@H]5C[C@H]4CN5C)c4c(C)cccc4N(C)C(=O)[C@H]32)n1 [Example 62, (3aR,11aS)-6,10-Dimethyl-5-(2-((1S,4S)-5-methyl-2,5-diazabicyclo[2.2.1]heptan-2-yl)ethyl)-1-(6-methyl-4-(trifluoromethyl)pyridin-2-yl)-1,3a,4,5,10,11a-hexahydro-2H-benzo[b]pyrrolo[2,3-f][1,4]diazocine-2,11(3H)-dione dihydrochloride]
1.07	Cc1cc(C(F)(F)F)cc(N2C(=O)C[C@@H]3CN(CCN4CCN(C)[C@@H](CO)C4)c4c(C)cccc4N(C)C(=O)[C@H]32)n1 [Example 63, (3aR,11aS)-5-(2-((R)-3-(Hydroxymethyl)-4-methylpiperazin-1-yl)ethyl)-6,10-dimethyl-1-(6-methyl-4-(trifluoromethyl)pyridin-2-yl)-1,3a,4,5,10,11a-hexahydro-2H-benzo[b]pyrrolo[2,3-f][1,4]diazocine-2,11(3H)-dione]
0.186	Cc1cc(C(F)(F)F)cc(N2C(=O)C[C@@H]3CN(Cc4cn5c(n4)CNCC5)c4c(C)cccc4N(C)C(=O)[C@H]32)n1 [Example 80, (3aR,11aS)-6,10-Dimethyl-1-(6-methyl-4-(trifluoromethyl)pyridin-2-yl)-5-((5,6,7,8-tetrahydroimidazo[1,2-a]pyrazin-2-yl)methyl)-1,3a,4,5,10,11a-hexahydro-2H-benzo[b]pyrrolo[2,3-f][1,4]diazocine-2,11(3H)-dione]
1.48	Cc1cc(C(F)(F)F)cc(N2C(=O)C[C@@H]3CN(CCN4CCC(F)(F)C4)c4c(Cl)cccc4N(C)C(=O)[C@H]32)n1 [Example 23, (3aR,11aS)-6-Chloro-5-(2-(3,3-difluoropyrrolidin-1-yl)ethyl)-10-methyl-1-(6-methyl-4-(trifluoromethyl)pyridin-2-yl)-1,3a,4,5,10,11a-hexahydro-2H-benzo[b]pyrrolo[2,3-f][1,4]diazocine-2,11(3H)-dione]
15.3	Cc1cc(C(F)(F)F)cc(N2C(=O)C[C@@H]3CNc4c(F)cccc4N(C)C(=O)[C@H]32)n1 [Example 1, (3aR,11aS)-6-Fluoro-10-methyl-1-(6-methyl-4-(trifluoromethyl)pyridin-2-yl)-1,3a,4,5,10,11a-hexahydro-2H-benzo[b]pyrrolo[2,3-f][1,4]diazocine-2,11(3H)-dione]
28.2	Cc1cc(C(F)(F)F)cc(N2C(=O)C[C@@H]3CN(C[C@H]4COCCN4)c4c(F)cccc4N(C)C(=O)[C@H]32)n1 (racemic) [Example 106b, (3aR,11aS)-6-Fluoro-10-methyl-1-(6-methyl-4-(trifluoromethyl)pyridin-2-yl)-5-(((S/R)-morpholin-3-yl)methyl)-1,3a,4,5,10,11a-hexahydro-2H-benzo[b]pyrrolo[2,3-f][1,4]diazocine-2,11(3H)-dione]
1.09	Cc1cc(C(F)(F)F)cc(N2C(=O)C[C@@H]3CN(CCN4CC[C@H](N(C)C)[C@H](F)C4)c4c(Cl)cccc4N(C)C(=O)[C@H]32)n1 [Example 35, (3aR,11aS)-6-Chloro-5-(2-((3R,4S)-4-(dimethylamino)-3-fluoropiperidin-1-yl)ethyl)-10-methyl-1-(6-methyl-4-(trifluoromethyl)pyridin-2-yl)-1,3a,4,5,10,11a-hexahydro-2H-benzo[b]pyrrolo[2,3-f][1,4]diazocine-2,11(3H)-dione hydrochloride]
5.14	C=CCN1C[C@H]2CC(=O)N(c3cc(C(F)(F)F)cc(C)n3)[C@@H]2C(=O)N(C)c2c(F)c(F)cc(Cl)c21 [Example 6, (3aR,11aS)-5-Allyl-6-chloro-8,9-difluoro-10-methyl-1-(6-methyl-4-(trifluoromethyl)pyridin-2-yl)-1,3a,4,5,10,11a-hexahydro-2H-benzo[b]pyrrolo[2,3-f][1,4]diazocine-2,11(3H)-dione]
